Source: patent US20220282304A1, “SAME-SAMPLE ANTIBIOTIC SUSCEPTIBILITY TEST AND RELATED COMPOSITIONS, METHODS AND SYSTEMS” (CALIFORNIA INSTITUTE OF TECHNOLOGY, priority 2021, published 2022)

Tested on: Escherichia coli K12
Experiment: Digital same-sample filtration AST at four exposure durations (Example 8)
Format: cell-based
Details: for Both (number of wells) / Empty (number of wells) / Extracellular only (number of wells) / Intracellular only (number of wells) / Intact (most likely number of cells) / Killed (most likely number of cells): Treated 1.0 μg ETP/mL; for Both (number of wells) / Empty (number of wells) / Extracellular only (number of wells) / Intracellular only (number of wells): 12 partitions, qPCR; for Intact (most likely number of cells) / Killed (most likely number of cells): assuming one cell per non-empty sample
Experimental: The inoculum was small enough that no detectable difference in the sample's optical density at 600 mm (OD600) was detectable by a spectrophotometer with a sensitivity of 0.01 absorbance units. After an incubation at 37° C., the media became turbid with an OD600 of 0.34 absorbance units after 3.08 hours of incubation.
In this experiment, the number and volume of sample partitions was restricted, for logistical reasons, to 96 partitions 10 μL in volume, specifically the wells of a 96-well plate. A goal was chosen of having a >98% chance of ending up with at least 48 empty partitions. When all partitions are the same volume, the following formula relates the expected number of empty partitions, the partition volume, and the density of cells.
N is the total number of partitions, n is the number of empty partitions, V is the partition volume, D is the density of cells, and t is a threshold probability chosen by the practitioner. In order to achieve digital sample partitioning with the available 96-well plate, each 10 μL sample of the specimen needed to contain between 0.02 and 2.5 cells on average. In this experiment, a density of 1 cells per sample were targeted. Due to systematic bias in the conversion of OD600 to cell density, the actual density achieved in the exposure was closer to 0.281 cells per sample. The batch culture specimen itself was diluted to a density of 28.1 CFU/mL (0.0281 cells/μL) to achieve the target cells/sample density.
To begin the AST protocol, the contrived clinical specimen (containing 28.1 CFU/mL) was physically partitioned into the 96 samples by transferring 10 μL of the specimen, in 96 separate transfers (actually […] with a multichannel pipette), to each well of a separable 96-well microtiter plate. Then, the entire plate was sealed with a RNase/DNase-free plastic, adhesive sealing membrane.
Each well of the 96-well microtiter plate contained 15 μL of Mueller-Hinton Broth (MHB) growth media, placed there before the specimen was partitioned. Half of the wells (48) contained 0 μg/mL of dissolved ETP antibiotic and served as reference condition antibiotic exposures. The other half of the wells contained 1.67 μg/mL of ETP (for a final concentration of 1.0 μg/mL) and served as 48 treated condition antibiotic exposures. The separable plate comprised 4 detachable sections bearing 3 columns and 8 rows of wells.
The treated and reference conditions were arranged so that each of the four groups of wells contained 12 treated and 12 reference conditions. In total, there would eventually be eight experimental conditions: 4 exposure durations of 0, 30, 60, and 120 min, each with 12 treated and 12 reference conditions.
Immediately after the specimen had been partitioned, one section (24 wells in total) of the separable 96-well plate was detached to serve as the 0-minute set of conditions. The rest of the separable 96-well plate was incubated at 37° C. Then, the following step was repeated for each time point of 0, 30, 60, and 120 minutes.
The entire volume of each antibiotic exposure was transferred to a Millipore® 96-well sterile polystyrene MultiScreenHTS® filter plate (Millipore-Sigma MSGVS2210). Each well of the filter plate contained a hydrophilic polyvinylidene fluoride (PVDF) filter membrane with a 0.22 μm pore size. A 96-well polypropylene microtiter plate was affixed to the bottom of the filter plate. The filter plate was promptly centrifuged at 2200 relative centrifugal force for 3 minutes to speed the passage of the antibiotic exposure sample through the filter and into 96-well microtiter plate. The collected fluid was called the “filtrate.” […]

SMILES: C[C@@H](O)[C@H]1C(=O)N2C(C(=O)O)=C(S[C@@H]3CN[C@H](C(=O)Nc4cccc(C(=O)O)c4)C3)[C@H](C)[C@H]12 [ETP, ertapenem]
- susceptibility call (1.0 μg/mL ETP, overall p-value vs 0.005): susceptible
- Both (number of wells) (exposure duration 0 min): 0
- Empty (number of wells) (exposure duration 0 min): 12
- Extracellular only (number of wells) (exposure duration 0 min): 0
- Intracellular only (number of wells) (exposure duration 0 min): 0
- Intact (most likely number of cells) (exposure duration 0 min): 0
- Killed (most likely number of cells) (exposure duration 0 min): 0
- Both (number of wells) (exposure duration 30 min): 0
- Empty (number of wells) (exposure duration 30 min): 7
- Extracellular only (number of wells) (exposure duration 30 min): 4
- Intracellular only (number of wells) (exposure duration 30 min): 1
- Intact (most likely number of cells) (exposure duration 30 min): 1
- Killed (most likely number of cells) (exposure duration 30 min): 4
- Both (number of wells) (exposure duration 60 min): 0
- Empty (number of wells) (exposure duration 60 min): 8
- Extracellular only (number of wells) (exposure duration 60 min): 4
- Intracellular only (number of wells) (exposure duration 60 min): 0
- Intact (most likely number of cells) (exposure duration 60 min): 0
- Killed (most likely number of cells) (exposure duration 60 min): 4
- Both (number of wells) (exposure duration 120 min): 0
- Empty (number of wells) (exposure duration 120 min): 8
- Extracellular only (number of wells) (exposure duration 120 min): 4
- Intracellular only (number of wells) (exposure duration 120 min): 0
- Intact (most likely number of cells) (exposure duration 120 min): 0
- Killed (most likely number of cells) (exposure duration 120 min): 4
